Assay results from US9365551B2, “2-(benzyloxy) benzamides as LRRK2 kinase inhibitors” (Glaxo Group Limited, priority 2010, dated 2016).
Structures can show the parent of a compound that is named as a salt.

Tests used:
[1] = target: T1, 6His-Tev-LRRK2 (1326-2527) (Homo sapiens, UniProt Q5S007); test: LRRK2 AlphaScreen desensitised protein substrate assay; assay type: biochemical; conditions: mean pIC50 of multiple test results
T1 construct: A LRRK2 cDNA encoding residues 1326-2527 was received from Dundee University; made in house; host or cells: Spodoptera frugiperda (Sf9) insect cells, baculovirus (pFB-HTb)
T1 sequence (Q5S007 1326-2527): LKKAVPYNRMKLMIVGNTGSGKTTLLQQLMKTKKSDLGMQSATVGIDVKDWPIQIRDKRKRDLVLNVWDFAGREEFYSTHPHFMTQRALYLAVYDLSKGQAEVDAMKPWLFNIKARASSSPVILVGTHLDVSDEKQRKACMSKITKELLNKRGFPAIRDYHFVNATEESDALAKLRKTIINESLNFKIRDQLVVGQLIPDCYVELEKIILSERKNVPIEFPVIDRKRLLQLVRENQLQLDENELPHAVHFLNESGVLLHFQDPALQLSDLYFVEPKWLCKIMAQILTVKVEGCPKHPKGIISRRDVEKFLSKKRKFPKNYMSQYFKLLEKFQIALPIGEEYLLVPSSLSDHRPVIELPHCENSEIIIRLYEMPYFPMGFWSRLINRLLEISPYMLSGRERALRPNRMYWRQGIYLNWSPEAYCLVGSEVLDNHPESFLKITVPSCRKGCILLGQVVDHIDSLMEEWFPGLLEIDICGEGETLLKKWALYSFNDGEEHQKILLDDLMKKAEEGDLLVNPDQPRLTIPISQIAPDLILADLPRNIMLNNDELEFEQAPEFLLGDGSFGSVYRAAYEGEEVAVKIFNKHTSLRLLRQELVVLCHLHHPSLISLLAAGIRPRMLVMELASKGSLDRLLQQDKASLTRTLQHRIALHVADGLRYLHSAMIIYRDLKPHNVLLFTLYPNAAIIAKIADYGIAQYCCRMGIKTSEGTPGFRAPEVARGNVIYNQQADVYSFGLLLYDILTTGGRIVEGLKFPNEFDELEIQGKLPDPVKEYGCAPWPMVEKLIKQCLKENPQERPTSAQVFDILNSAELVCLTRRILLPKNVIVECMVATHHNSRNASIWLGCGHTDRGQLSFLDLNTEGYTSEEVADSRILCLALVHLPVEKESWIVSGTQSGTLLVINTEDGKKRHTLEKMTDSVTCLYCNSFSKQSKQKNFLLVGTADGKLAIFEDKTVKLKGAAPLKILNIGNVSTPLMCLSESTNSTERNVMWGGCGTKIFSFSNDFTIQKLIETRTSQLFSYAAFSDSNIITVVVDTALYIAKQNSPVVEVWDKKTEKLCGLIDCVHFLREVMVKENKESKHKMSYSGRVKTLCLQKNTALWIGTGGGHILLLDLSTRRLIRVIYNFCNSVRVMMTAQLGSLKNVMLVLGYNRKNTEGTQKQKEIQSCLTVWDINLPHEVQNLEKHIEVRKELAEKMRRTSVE
Protocol: (§1) Compounds of formula (I) may be tested for in vitro kinase activity in accordance with the following assays, using the non natural, in vitro, substrates moesin and the Longer Biotin-LRRKtide. Moesin and a shorter version of the peptide were identified as substrates in Jaleel et al. (2007, Biochem J, 405: 307-317).
(§2) b) 3 μl enzyme solution (80 nM purified recombinant 6His-Tev-LRRK2 (1326-2527) in assay buffer: 50 mM Hepes (pH 7.2), 10 mM MgCl2, 150 mM NaCl, 5% glycerol, 0.0025% triton X-100 and 1 mM DTT) is added to certain wells. 3 μl assay buffer is added to certain wells as a 100% inhibition (no enzyme) control. c) After incubation at room temperature for 30 minutes, 3 μl substrate solution (2 μM Biotin-LRRKtide peptide substrate and ATP at Km in assay buffer) is added to each well. Plates are then incubated for a further 1-2 hours at room temperature (incubation time varies depending upon rate and linearity of reaction with differing enzyme batches). d) 6 μl detection solution (50 nM Streptavidin SureLight® APC (PerkinElmer), 4 nM Eu-W1024 labelled anti-rabbit IgG antibody (PerkinElmer), 1:500 dilution (dilution determined on a batch to batch basis) of Phospho-Ezrin (Thr567)/Radixin (Thr564)/Moesin (Thr558) Polyclonal Antibody (New England Biolabs) and 60 mM EDTA in buffer: 40 mM Hepes (pH 7.2), 150 mM NaCl, 0.03% BSA) is added to each well. Plates are then incubated for a further 2 hours at room temperature before reading on a suitable plate reader (Excitation 330 nm, emission 620 nm (Eu) and 665 nm (APC)). Data is analysed using ActivityBase software (IDBS). LRRK2 AlphaScreen Desensitised Protein Substrate Assay a) 100 nl of a 1:4 serial dilution of test compound with a top final assay concentration of 30 μM is added to certain wells in a low volume 384 well black plate. 100 nl of DMSO is used in certain wells as controls. b) 3 μl enzyme solution (80 nM purified recombinant 6His-Tev-LRRK2 (1326-2527) in assay buffer: 50 mM Hepes (pH 7.2), 10 mM MgCl2, 150 mM NaCl, 5% glycerol, 0.0025% triton X-100 and 1 mM DTT) is added to certain wells. 3 μl assay buffer is added to certain wells as a 100% inhibition (no enzyme) control. c) After incubation at room temperature for 30 minutes, 3 μl substrate solution (200 nM GST-PS-Moesin (400-577) and 2 mM ATP in assay buffer) is added to each well. Plates are then incubated for 20 minutes at room temperature. d) 6 μl detection solution (1:250 dilution of AlphaLisa Protein A Acceptor beads (PerkinElmer), 1:64 dilution of AlphaLisa Gluthathione Donor beads (PerkinElmer) and 1:600 dilution (dilution determined on a batch to batch basis) of Phospho-Ezrin (Thr567)/Radixin (Thr564)/Moesin (Thr558) Polyclonal Antibody (New England Biolabs) in a buffer: 50 mM Hepes (pH 7.5), 250 mM NaCl, 60 mM EDTA, 1% PEG and 0.01% Brij 35) is added to each well. Plates are then incubated for a further 2 hours at room temperature in the dark before reading on an EnVision™ plate reader with AlphaScreen HTS turbo option module and AlphaScreen settings. Data is analysed using ActivityBase software (IDBS). Pharmacological Data

[2] = target: T1, 6His-Tev-LRRK2 (1326-2527); test: LRRK2 peptide substrate assay; assay type: biochemical; conditions: mean pIC50 of multiple test results
Protocol: as §1
LRRK2 Peptide Substrate Assay
a) 100 nl of a 1:4 serial dilution of test compound with a top final assay concentration of 30 μM is added to certain wells in a low volume 384 well black plate. 100 nl of DMSO is used in certain wells as controls.
as §2

[3] = stated as threshold, read-out: pIC50 in the LRRK2 alphascreen desensitised protein substrate assay (bounds) (converted)
[4] = stated as threshold, read-out: pIC50 in the LRRK2 peptide substrate assay (bounds) (converted)
[5] = GST-PS-Moesin (400-577) substrate, 2 mM ATP, read-out: LRRK2 alphascreen desensitized protein substrate assay (pIC50) (converted)
[6] = Biotin-LRRKtide peptide substrate, ATP at Km, read-out: LRRK2 peptide substrate assay (pIC50) (converted)

Structure (SMILES)	IC50 [2, 4] [nM]	IC50 [2, 6] [nM]	IC50 [1, 3] [nM]	IC50 [1, 5] [nM]
O=C(Nc1ccnnc1)c1cc(Br)c(CN2CCOCC2)cc1OCc1ccccc1 [Example 1, 5-Bromo-4-(4-morpholinylmethyl)-2-[(phenylmethyl)oxy]-N-4-pyridazinylbenzamide]	≤ 100	–	≤ 25100	–
O=C(Nc1cccnc1)c1cc(Br)c(CN2CCOCC2)cc1OCc1ccccc1 [Example 2, 5-Bromo-4-(4-morpholinylmethyl)-2-[(phenylmethyl)oxy]-N-3-pyridinylbenzamide]	≤ 10	10	≤ 316	251
Cn1cc(-c2cc(C(=O)Nc3ccnnc3)c(OCc3ccccc3)cc2CN2CCOCC2)cn1 [Example 3, 5-(1-Methyl-1H-pyrazol-4-yl)-4-(4-morpholinylmethyl)-2-[(phenylmethyl)oxy]-N-4-pyridazinylbenzamide]	≤ 100	–	≤ 25100	–
Cn1cc(-c2cc(C(=O)Nc3cccnc3)c(OCc3ccccc3)cc2CN2CCOCC2)cn1 [Example 4, 5-(1-Methyl-1H-pyrazol-4-yl)-4-(4-morpholinylmethyl)-2-[(phenylmethyl)oxy]-N-3-pyridinylbenzamide]	≤ 100	15.8	≤ 316	126
Cc1cc(OCc2ccccc2)c(C(=O)Nc2ccnnc2)cc1Br [Example 5, 5-Bromo-4-methyl-2-[(phenylmethyl)oxy]-N-4-pyridazinyl benzamide]	≤ 10	–	≤ 316	–
Cc1cc(OCc2ccccc2)c(C(=O)Nc2cccnc2)cc1Br [Example 6, 5-Bromo-4-methyl-2-[(phenylmethyl)oxy]-N-3-pyridinylbenzamide]	≤ 10	–	≤ 316	–
Cc1cc(C(=O)Nc2ccnnc2)c(OCc2ccccc2)cc1Br [Example 10, 4-Bromo-5-methyl-2-[(phenylmethyl)oxy]-N-4-pyridazinylbenzamide]	≤ 10	6.31	≤ 316	100
Cn1cc(-c2cc(OCc3ccc(F)cc3)c(C(=O)Nc3cccnc3)cc2CN2CCOCC2)cn1 [Example 13, 2-{[(4-Fluorophenyl)methyl]oxy}-4-(1-methyl-1H-pyrazol-4-yl)-5-(4-morpholinylmethyl)-N-3-pyridinylbenzamide]	≤ 100	79.4	≤ 25100	794
Cn1cc(-c2cc(OCc3ccc(F)cc3)c(C(=O)Nc3ccnnc3)cc2CN2CCOCC2)cn1 [Example 14, 2-{[(4-Fluorophenyl)methyl]oxy}-4-(1-methyl-1H-pyrazol-4-yl)-5-(4-morpholinylmethyl)-N-4-pyridazinylbenzamide]	≤ 1260	–	≤ 25100	–
Cn1cc(-c2cc(C(=O)Nc3cccc(Cl)c3)c(OCc3ccccc3)cc2CN2CCOCC2)cn1 [Example 50, 2-(benzyloxy)-N-(3-chlorophenyl)-5-(1-methyl-1H-pyrazol-4-yl)-4-(morpholinomethyl)benzamide, Hydrochloride]	≤ 100	–	–	–
Cn1cc(-c2cc(C(=O)Nc3cccc(Cl)c3)c(OCc3ccccc3)cc2CN2CCOCC2)cn1 [Example 51, 2-(benzyloxy)-N-(3-chlorophenyl)-5-(1-methyl-1H-pyrazol-4-yl)-4-(morpholinomethyl)benzamide, Maleic acid salt]	≤ 100	–	–	–
CN1CCN(C(=O)c2cc(OCc3ccccc3)c(C(=O)Nc3cccnc3)cc2Cl)CC1 [Example 54, 2-(benzyloxy)-5-chloro-4-(4-methylpiperazine-1-carbonyl)-N-(pyridin-3-yl)benzamide]	≤ 100	–	–	–

The next lines start with results.

IC50 [2, 4] [nM]	IC50 [2, 6] [nM]	Structure (SMILES)	IC50 [1, 3] [nM]	IC50 [1, 5] [nM]
≤ 100	15.8	Cc1cc(OCc2ccccc2)c(C(=O)Nc2cccnc2)cc1-c1cnn(C)c1 [Example 7, 4-Methyl-5-(1-methyl-1H-pyrazol-4-yl)-2-[(phenylmethyl)oxy]-N-3-pyridinylbenzamide]	≤ 316	158
≤ 100	–	Cc1cc(OCc2ccccc2)c(C(=O)Nc2ccnnc2)cc1-c1cnn(C)c1 [Example 8, 4-Methyl-5-(1-methyl-1H-pyrazol-4-yl)-2-[(phenylmethyl)oxy]-N-4-pyridazinylbenzamide]	≤ 25100	–
≤ 10	10	Cc1cc(C(=O)Nc2cccnc2)c(OCc2ccccc2)cc1Br [Example 9, 4-Bromo-5-methyl-2-[(phenylmethyl)oxy]-N-3-pyridinylbenzamide]	≤ 316	126
≤ 10	7.94	Cc1cc(C(=O)Nc2cccnc2)c(OCc2ccccc2)cc1-c1cnn(C)c1 [Example 11, 5-Methyl-4-(1-methyl-1H-pyrazol-4-yl)-2-[(phenylmethyl)oxy]-N-3-pyridinylbenzamide]	≤ 316	50.1
≤ 10	10	Cc1cc(C(=O)Nc2ccnnc2)c(OCc2ccccc2)cc1-c1cnn(C)c1 [Example 12, 5-Methyl-4-(1-methyl-1H-pyrazol-4-yl)-2-[(phenylmethyl)oxy]-N-4-pyridazinylbenzamide]	≤ 316	100
